This is an account of results in US9597297B2, “Combination of pilocarpin and methimazol for treating Charcot-Marietooth disease and related disorders” (PHARNEXT, priority 2008, dated 2017).

Common to all, as to type: in vivo
Test [1] deals with CMT transgenic rat model (PMP22 transgenic rats). The test can be described thus: Bar test in CMT transgenic rats. Particulars: for time of treatment at which bar test effect becomes statistically significant: force-feeding; for bar test performances: female CMT TG rats vs TG placebo, methimazole 0.35 mg/kg, pilocarpine 0.2 mg/kg as printed in b214. From the text:
The inventors have tested compounds and combinations for therapeutic effect in CMT transgenic rat model, a hemizygous PMP22 transgenic rats bearing three additional copies of mouse PMP22 gene show signs of demyelination in peripheral and cranial nerves, (Sereda et al., 1996; Grandis et al., 2004). At the mRNA level, an average 1.6-fold overexpression of PMP22 in CMT rats correlates with the clinical phenotype. A putative threshold level of PMP22 overexpression at which the wild type gene turns into a disease gene represents an obvious “target” to reach by treatment aimed at reducing PMP22 gene expression.
The inventors have tested the compounds and combinations for therapeutic effect in a rat model. The experimental groups are formed with young rats of both genders separately. The rats are assigned to the groups following randomization schedule based on the body weight. In some experiments the randomization is based on the performances of the rats in the bar test. Both genders are represented by separate control littermates groups that are numerically equal or bigger than the treatment groups.
The rats are treated chronically with drugs—force fed or injected by Alzet osmotic subcutaneous pump (DURECT Corporation Cupertino, Calif.), depending on each drug bioavailability during 3 or 6 weeks.
Each three or four weeks the animals are subjected to a behavioural test. Each test is conducted by the same investigator in the same room and at the same time of the day; this homogeneity is maintained throughout entire experiment. All treatments and genotype determination are blinded for the investigator. “Bar test” and “Grip strength” has been mainly used to access the performance throughout study. The schedule of the bar test may change as the animal growth (in order to avoid the bias due to the learning, for example).
The bar test evaluates rats' ability to hold on a fix rod. […] The rat is placed on its four paws on the middle of the rod (diameter: 2.5 cm; length: 50 cm; 30 cm above the table). Trials are performed consecutively; the number (5 or 10) and the duration (30 or 60 sec) of trials in our experiments have been depending on batches of the animals. This variability in the testing has been introduced in order to determine the schedule appropriated to the best detection of the motor deficiency in the CMT rats in the course of the experiments.
Performance indices are recorded on each session: • The number of trials needed to hold for 60 sec or 30 sec on the rod. • The mean time spent on the bar (i.e. the fall latency) in each trial and the average on the session. In the experimental procedures the session ends after the rat has stayed two times for a cut-off time, i.e. 30 or 60 s, on the bar. A performance of the cut-off time (30 s or 60 s) is assigned to trials not completed. • The number of falls.

Test [2] has the same test system. The test can be described thus: Electrophysiology: sensitive nerve potential amplitude (SNAP) in CMT rats. Particulars: CMT TG rats treated 20 weeks vs TG placebo. As for the experimental part:
When appropriate, the rats are subjected to electrophysiological evaluation: the sensitive nerve conduction velocity as well as latencies and potential amplitude are measured.
NCV measurement and potential acquisition (subcutaneous) were performed with the help of the chain composed of an amplificator (AM System 1700 and/or EMG-UTC), a stimulator (Havard apparatus 223) and a computer equipped with an acquisition card and a software for acquisition (SPATOL) and for the signal treatment (CALVISE).
Animals were anesthetized using ketamine/xalazine and maintained on the thermostated plate at 37° C. throughout the test (anaesthetics were supplemented as needed). Stimulating silver needle electrodes were inserted in the proximal part of the tail. The recording electrode was inserted subcutaneously through about 1 mm of skin in the distal part of the tail (4 and 6 cm from the stimulating electrode). Constant-current square-wave stimuli, […] in duration, were administered at a frequency of 0.3 per second. Responses, amplified 5.000-20.000, were visualized and collected on a computer based data acquisition system. Latencies were measured at each wave onset (defined as the first clearly identifiable deflection from the baseline). Peak to peak amplitudes of the largest deflections were calculated to determine maximum amplitude. For each recording, measurements were performed on the averaged responses to at least ten identical stimuli.
Sensory related conduction velocity (SNCV) was calculated by division of the distance between the stimulating cathodes by the difference between the correspondent latencies obtained from the two sites of stimulation.

For test [3] the test system is unchanged. The test can be described thus: Post-mortem weighing of sciatic nerves and soleus muscles in CMT rats. The following applies: CMT female rats treated 20 weeks. From the text: FIG. 5: The analysis of the post-mortem samples obtained from the animals treated with drugs as described in the legend to FIG. 3. The rats treated with drugs and placebo during 20 weeks, were deeply anesthetized and the entire sciatic nerves and soleus muscles were carefully sampled and weighted. The graphs present the 30 mean values of these measurements.
Sciatic nerves are excised and used for weighting as well as for molecular biology and/or biochemical essays. (RT-Q-PCR for PMP22 mRNA and Western blots for myelin proteins quantifications; Cayman's EIA kits—for biochemical markers such as arachidonic acid metabolites, HPLC quantification for steroids and amines, ELISA for CNTF, IL-6 etc.) performed according to generally used protocols and for analytical procedures (drug concentrations measures).
The hind limbs muscles (soleus) are sampled, weighted, snap-frozen and preserved at −80° C. until analysis (the same as for sciatic nerves).

Entries after “also recorded” stand apart in the source; their conditions may differ.

For `Cn1cc[nH]c1=S` [methimazole, 1-methyl-3H-imidazole-2-thione], in test [1] (CMT TG rats), the “time of treatment at which bar test effect becomes statistically significant” value turned out to be 8 weeks. Besides, the bar test performances entry in test [1] (daily forced feeding) was “significantly more performing”; in test [1] (daily forced feeding, listed as Methimazole) it was “improve bar test performances”. For the same molecule, the “SNAP (sensitive nerve potential amplitude), distal portion of the tail” value in test [2] is given as “significantly improved”. Moreover, the “mass of sciatic nerves and soleus muscles” value in test [3] is “completely corrected”.

For the molecule `CC[C@@H]1C(=O)OC[C@@H]1Cc1cncn1C` [pilocarpine, (3S,4R)-3-ethyl-4-[(3-methylimidazol-4-yl)methyl]oxolan-2-one], the “bar test performance compared with WT placebo group” value in test [1] (CMT TG rats, daily forced feeding) is reported as “no more significantly differs from that of the WT placebo group”. In addition, the “time of treatment at which bar test effect becomes statistically significant” value in test [1] (CMT TG rats) was determined as 8 weeks. In test [1] (daily forced feeding), the bar test performances result is “improve bar test performances; also recorded: significantly more performing”. The “SNAP (sensitive nerve potential amplitude), distal portion of the tail” value is “failed to reach statistical significance” in test [2] and “approaching the nominal 5% threshold for significance” in test [2] (listed as compound B). Further, the “mass of sciatic nerves and soleus muscles” value in test [3] was “smaller than that of methimazole”.
